Assay results from patent publication US10045983B2, “Heteroaryl pyridone and aza-pyrodine compounds” (Genentech, Inc., priority 2011, dated 2018).

assay: CD69 Whole Blood Assay (CD69 Hu Blood FACS); assay type: cell-based, human; conditions: Lymphocyte; human whole blood, anti-IgM activated B lymphocytes, FACS; IC70; Table 1; read-out: CD69 Hu Blood FACS IC70
Method in brief: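 Human whole blood stimulated by crosslinking surface IgM with goat F(ab′)2 anti-human IgM; inhibition of CD69 expression on B lymphocytes measured by flow cytometry.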

Structure (SMILES) | IC70 [µM]
C[C@@H]1CN(C2COC2)CCN1c1ccc(Nc2cc(-c3ccnc(-n4ncc5c6c(sc5c4=O)CCCC6)c3CO)cn(C)c2=O)nc1 [Example 154, 3-{3′-Hydroxymethyl-1-methyl-5-[5-((R)-2-methyl-4-oxetan-3-yl-piperazin-1-yl)-pyridin-2-ylamino]-6-oxo-1,6-dihydro-[3,4′]bipyridinyl-2′-yl}-6,7,8,9-tetrahydro-3H-benzo[4,5]thieno[2,3-d]pyridazin-4-one] | 0.0374
CC[C@H]1CN(C2COC2)CCN1c1ccc(Nc2cc(-c3ccnc(-n4ncc5c6c(sc5c4=O)CCCC6)c3CO)cn(C)c2=O)nc1 [Example 175, 3-{5-[5-((S)-2-Ethyl-4-oxetan-3-yl-piperazin-1-yl)-pyridin-2-ylamino]-3′-hydroxymethyl-1-methyl-6-oxo-1,6-dihydro-[3,4′]bipyridinyl-2′-yl}-6,7,8,9-tetrahydro-3H-benzo[4,5]thieno[2,3-d]pyridazin-4-one] | 0.0466
Cn1cc(-c2ccnc(N3CCn4c(cc5c4CCCC5)C3=O)c2CO)cc(Nc2ccc(N3CCN(CC(C)(C)O)CC3)cn2)c1=O [Example 120, 2-(4-(5-(5-(4-(2-Hydroxy-2-methylpropyl)piperazin-1-yl)pyridin-2-ylamino)-1-methyl-6-oxo-1,6-dihydropyridin-3-yl)-3-(hydroxymethyl)pyridin-2-yl)-3,4,6,7,8,9-hexahydropyrazino[1,2-a]indol-1(2H)-one] | 0.283
Cn1cc(-c2ccnc(N3CCn4c(cc5c4CCCC5)C3=O)c2CO)cc(Nc2ccc(N3CCN(CCO)CC3)cn2)c1=O [Example 123, 2-(4-(5-(5-(4-(2-Hydroxyethyl)piperazin-1-yl)pyridin-2-ylamino)-1-methyl-6-oxo-1,6-dihydropyridin-3-yl)-3-(hydroxymethyl)pyridin-2-yl)-3,4,6,7,8,9-hexahydro-pyrazino[1,2-a]indol-1(2H)-one] | 0.0331
Cn1cc(-c2ccnc(N3CCn4c(cc5c4CCCC5)C3=O)c2CO)cc(Nc2cc(C3CC3)[nH]n2)c1=O [Example 118, 2-(4-(5-(5-Cyclopropyl-1H-pyrazol-3-ylamino)-1-methyl-6-oxo-1,6-dihydropyridin-3-yl)-3-(hydroxymethyl)pyridin-2-yl)-3,4,6,7,8,9-hexahydropyrazino[1,2-a]indol-1(2H)-one] | 0.608
CC[C@H]1CN(C2COC2)CCN1c1ccc(Nc2cc(-c3ccnc(N4CCn5c(cc6c5CCCC6)C4=O)c3CO)cn(C)c2=O)nc1 [Example 131, (S)-2-(4-(5-(5-(2-ethyl-4-(oxetan-3-yl)piperazin-1-yl)pyridin-2-ylamino)-1-methyl-6-oxo-1,6-dihydropyridin-3-yl)-3-(hydroxymethyl)pyridin-2-yl)-3,4,6,7,8,9-hexahydropyrazino[1,2-a]indol-1(2H)-one] | 0.0155

same assay, conditions: Lymphocyte; human whole blood, anti-IgM activated B lymphocytes, FACS; IC70; Table 2 (unit inferred); read-out: CD69 Hu Blood FACS (IC70)

Structure (SMILES) | IC70 [µM]
C[C@H]1CN(C2COC2)CCN1c1ccc(Nc2cc(-c3ccnc(-n4ncc5c6c(sc5c4=O)CC(C)(C)C6)c3CO)cn(C)c2=O)nc1 [Example 282, 3-[3-(hydroxymethyl)-4-[1-methyl-5-[[5-[(2S)-2-methyl-4-(oxetan-3-yl)piperazin-1-yl]-2-pyridyl]amino]-6-oxo-3-pyridyl]-2-pyridyl]-7,7-dimethyl-6,8-dihydrocyclopenta[3,4]thieno[1,3-d]pyridazin-4-one] | 0.0174
CCc1nnc(Nc2cc(-c3ccnc(N4CCn5c(cc6c5CC(C)(C)C6)C4=O)c3CO)cn(C)c2=O)s1 [Example 332, 3-[4-[5-[(5-ethyl-1,3,4-thiadiazol-2-yl)amino]-1-methyl-6-oxo-3-pyridyl]-3-(hydroxymethyl)-2-pyridyl]-7,7-dimethyl-1,2,6,8-tetrahydrocyclopenta[3,4]pyrrolo[3,5-b]pyrazin-4-one] | 0.0919
Cc1nccc(Nc2cc(-c3ccnc(N4CCn5c6c(c(F)c5C4=O)CCCC6)c3CO)cn(C)c2=O)n1 [Example 213, 10-fluoro-2-[3-(hydroxymethyl)-4-[1-methyl-5-[(2-methylpyrimidin-4-yl)amino]-6-oxo-3-pyridyl]-2-pyridyl]-3,4,6,7,8,9-hexahydropyrazino[1,2-a]indol-1-one] | 0.62
Cc1ccc(Nc2cc(-c3ccnc(N4CCn5c(cc6c5CC(C)(C)C6)C4=O)c3CO)cn(C)c2=O)nc1 [Example 281, 3-[3-(hydroxymethyl)-4-[1-methyl-5-[(5-methyl-2-pyridyl)amino]-6-oxo-3-pyridyl]-2-pyridyl]-7,7-dimethyl-1,2,6,8-tetrahydrocyclopenta[3,4]pyrrolo[3,5-b]pyrazin-4-one] | 0.718
Cn1cc(-c2ccnc(-n3ncc4c5c(sc4c3=O)CC(C)(C)C5)c2CO)cc(Nc2cc3n(n2)CC(C)(C)OC3)c1=O [Example 335, 3-[4-[5-[(6,6-dimethyl-4,7-dihydropyrazolo[5,1-c][1,4]oxazin-2-yl)amino]-1-methyl-6-oxo-3-pyridyl]-3-(hydroxymethyl)-2-pyridyl]-7,7-dimethyl-6,8-dihydrocyclopenta[3,4]thieno[1,3-d]pyridazin-4-one] | 0.0528
CN1CCc2nc(Nc3cc(-c4ccnc(N5CCn6c7c(c(F)c6C5=O)CCCC7)c4CO)cn(C)c3=O)sc2C1 [Example 223, 10-fluoro-2-[3-(hydroxymethyl)-4-[1-methyl-5-[(5-methyl-6,7-dihydro-4H-thiazolo[5,4-c]pyridin-2-yl)amino]-6-oxo-3-pyridyl]-2-pyridyl]-3,4,6,7,8,9-hexahydropyrazino[1,2-a]indol-1-one] | 0.43
CN1CC(Oc2ccc(Nc3cc(-c4ccnc(N5CCn6c(cc7c6CCCC7)C5=O)c4CO)cn(C)c3=O)nc2)C1 [Example 206, 2-[3-(hydroxymethyl)-4-[1-methyl-5-[[5-(1-methylazetidin-3-yl)oxy-2-pyridyl]amino]-6-oxo-3-pyridyl]-2-pyridyl]-3,4,6,7,8,9-hexahydropyrazino[1,2-a]indol-1-one] | 0.15
Cn1cc(-c2ccnc(N3CCn4c(cc5c4CCCC5)C3=O)c2CO)nc(Nc2ccc(N3CCN(C4COC4)CC3)nc2)c1=O [Example 197, 2-[3-(hydroxymethyl)-4-[4-methyl-6-[[6-[4-(oxetan-3-yl)piperazin-1-yl]-3-pyridyl]amino]-5-oxo-pyrazin-2-yl]-2-pyridyl]-3,4,6,7,8,9-hexahydropyrazino[1,2-a]indol-1-one] | 2.3
Cn1cc(-c2ccnc(N3CCn4c(cc5c4CC(C)(C)C5)C3=O)c2CO)cc(Nc2ccc(C(=O)N3CCOCC3)cn2)c1=O [Example 269, 3-[3-(hydroxymethyl)-4-[1-methyl-5-[[5-(morpholine-4-carbonyl)-2-pyridyl]amino]-6-oxo-3-pyridyl]-2-pyridyl]-7,7-dimethyl-1,2,6,8-tetrahydrocyclopenta[3,4]pyrrolo[3,5-b]pyrazin-4-one] | 0.0251
Cc1cc(Nc2cc(-c3ccnc(N4CCn5c(cc6c5CC(C)(C)C6)C4=O)c3CO)cn(C)c2=O)nn1C1COC1 [Example 312, 3-[3-(hydroxymethyl)-4-[1-methyl-5-[[5-methyl-1-(oxetan-3-yl)pyrazol-3-yl]amino]-6-oxo-3-pyridyl]-2-pyridyl]-7,7-dimethyl-1,2,6,8-tetrahydrocyclopenta[3,4]pyrrolo[3,5-b]pyrazin-4-one] | 5.6
Cc1cc(Nc2cc(-c3ccnc(-n4ncc5c6c(sc5c4=O)CC(C)(C)C6)c3CO)cn(C)c2=O)nn1C [Example 292, 3-[4-[5-[(1,5-dimethylpyrazol-3-yl)amino]-1-methyl-6-oxo-3-pyridyl]-3-(hydroxymethyl)-2-pyridyl]-7,7-dimethyl-6,8-dihydrocyclopenta[3,4]thieno[1,3-d]pyridazin-4-one] | 0.118
